Laboratory results: patent US20030158184A1, “Nitrosated and nitrosylated phosphodiesterase inhibitor compounds, compositions and their uses” (priority 2001, published 2003)

System: human corpus cavernosum tissue
Conditions: doses of 10 μM and 30 μM; compared with equimolar dose of dipyridamole; tissue contracted with phenylephrine 7×10^−7 M; 0% = phenylephrine contraction, −100% = tone after papaverine 10^−4 M; FIG. 40
Description: The tissue was maintained in a chilled Krebs-bicarbonate solution prior to assay. The tissue was cut into strips of 0.3×0.3×1 cm and suspended in organ chambers for isometric tension measurement. Tissues were incrementally stretched until optimal isometric tension for contraction was obtained. […] At the end of the experiment papaverine (10^−4 M) is added to obtain maximal relaxation. […] Data are expressed as the percent loss in tone from the phenylephrine-induced contraction (0% =phenylephrine contraction; −100%=tone after the administration of papaverine).

## CC(C)(CC(=O)OCCN(CCOC(=O)CC(C)(C)SN=O)c1nc(N2CCCCC2)c2nc(N(CCOC(=O)CC(C)(C)SN=O)CCOC(=O)CC(C)(C)SN=O)nc(N3CCCCC3)c2n1)SN=O [Example 1, 2.6-bis(diethyl(3-methyl-3(nitrosothiol)butyric acid ester)amino)-4.8-dipipendinopyrimido-[5,4d]-pyrimidine]
  relaxation of the phenylephrine-induced contraction (percent loss in tone from the phenylephrine-induced contraction): more efficacious
